Data as given in patent publication US4565699A, “Composition of matter and process” (The Upjohn Company, priority 1983, dated 1986).
Values after ≈ are worked out from the molar mass of the structure shown. Like-named read-outs stand apart in the source and are kept apart here.

How the values were obtained:
Gram-positive bacteria = test: Antimicrobial spectrum; assay type: cell-based
Source text: (§1) The assay is a standard tube dilution assay using BHI (Brain Heart Infusion medium-Difco). "UC" is a registered trademark of The Upjohn Company Culture Collection.

Staphylococcus aureus = test: MIC, standard tube dilution assay, BHI medium; assay type: cell-based
Source text: as §1

Serratia marcescens = test: MIC, standard tube dilution assay, BHI medium; assay type: cell-based; conditions: UC6888, UC 6888, read-out: Minimum inhibitory concentration
Source text: as §1

Pseudomonas aeruginosa = test: MIC, standard tube dilution assay, BHI medium; assay type: cell-based
Source text: as §1

Haemophilus influenzae = test: MIC, standard tube dilution assay, BHI medium; assay type: cell-based
Source text: as §1

Streptococcus pyogenes = test: MIC, standard tube dilution assay, BHI medium; assay type: cell-based; conditions: UC152, UC 152, read-out: Minimum inhibitory concentration
Source text: as §1

Enterobacter cloacae = test: MIC, standard tube dilution assay, BHI medium; assay type: cell-based; conditions: UC9382, UC 9382, read-out: Minimum inhibitory concentration
Source text: as §1

Streptococcus faecalis = test: MIC, standard tube dilution assay, BHI medium; assay type: cell-based; conditions: Enterococcus faecalis, UC694; UC 694; read-out: Minimum inhibitory concentration
Source text: as §1

Klebsiella pneumoniae = test: MIC, standard tube dilution assay, BHI medium; assay type: cell-based; conditions: UC58, UC 58, read-out: Minimum inhibitory concentration
Source text: as §1

Citrobacter freundii = test: MIC, standard tube dilution assay, BHI medium; assay type: cell-based; conditions: UC3507, UC 3507, read-out: Minimum inhibitory concentration
Source text: as §1

Escherichia coli = test: MIC, standard tube dilution assay, BHI medium; assay type: cell-based; conditions: UC311, UC 311, read-out: Minimum inhibitory concentration
Source text: as §1

Streptococcus pneumoniae = test: MIC, standard tube dilution assay, BHI medium; assay type: cell-based; conditions: UC41, UC 41, read-out: Minimum inhibitory concentration
Source text: as §1

Solubilities = assay type: physicochemical

C=C/C(C)=C/C1(CC)SC(=O)C(CC(N)=O)=C1O (stereo not shown) [U-68,204]
Activity against various Gram-positive bacteria (Gram-positive bacteria): active | MIC (Staphylococcus aureus; UC76, UC 76, read-out: Minimum inhibitory concentration): 75 µg/mL (≈ 281 µM) | MIC (Staphylococcus aureus; UC3665, UC 3665, read-out: Minimum inhibitory concentration): 75 µg/mL (≈ 281 µM) | MIC (Staphylococcus aureus; UC6675, UC 6675, read-out: Minimum inhibitory concentration): 75 µg/mL (≈ 281 µM) | MIC (Staphylococcus aureus; UC6685, UC 6685, read-out: Minimum inhibitory concentration): 600 µg/mL (≈ 2240 µM) | MIC (Serratia marcescens): > 600 µg/mL | MIC (Pseudomonas aeruginosa; UC6432, UC 6432, read-out: Minimum inhibitory concentration): > 600 µg/mL | MIC (Pseudomonas aeruginosa; UC6676, UC 6676, read-out: Minimum inhibitory concentration): > 600 µg/mL | MIC (Pseudomonas aeruginosa; UC6954, UC 6954, read-out: Minimum inhibitory concentration): > 600 µg/mL | MIC (Pseudomonas aeruginosa; UC6955, UC 6955, read-out: Minimum inhibitory concentration): 19 µg/mL (≈ 71.1 µM) | MIC (Pseudomonas aeruginosa; UC9027, UC 9027, read-out: Minimum inhibitory concentration): 37.5 µg/mL (≈ 140 µM) | MIC (Haemophilus influenzae; UC6482, UC 6482, read-out: Minimum inhibitory concentration): 9.4 µg/mL (≈ 35.2 µM) | MIC (Haemophilus influenzae; UC6483, UC 6483, read-out: Minimum inhibitory concentration): 19 µg/mL (≈ 71.1 µM) | MIC (Streptococcus pyogenes): > 600 µg/mL | MIC (Enterobacter cloacae): > 600 µg/mL | MIC (Streptococcus faecalis): > 600 µg/mL | MIC (Klebsiella pneumoniae): 300 µg/mL (≈ 1120 µM) | MIC (Citrobacter freundii): > 600 µg/mL | MIC (Escherichia coli): 600 µg/mL (≈ 2240 µM) | MIC (Streptococcus pneumoniae): > 600 µg/mL | Solubility (Solubilities; most organic solvents): soluble in most organic solvents | Solubility (Solubilities; water): not soluble in water
